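Following 48 hours of exposure in 96-well plates, responses at five concentrations were used to interpolate endpoints linearly. Abbreviation: GI50, concentration required for 50% inhibition of growth.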 The source made the active and inactive calls. No stated cut-off is given here; in the data, active = GI50 up to about 1.1 µM and inactive = higher.
Columns and labels:
Test in all cases: growth of human tumour cells (NCI), 48 h
786-0 = tested on: 786-0
CAKI-1 = tested on: CAKI-1
CCRF-CEM = tested on: CCRF-CEM
HCC 2998 = tested on: HCC 2998
HL-60 = tested on: HL-60
HOP-92 = tested on: HOP-92
IGROV-1 = tested on: IGROV-1
KM12 = tested on: KM12
M14 = tested on: M14
NCI-H226 = tested on: NCI-H226
NCI-H23 = tested on: NCI-H23
OVCAR-8 = tested on: OVCAR-8
SF-295 = tested on: SF-295
SNB-19 = tested on: SNB-19
SNB-75 = tested on: SNB-75
SR = tested on: SR
TK-10 = tested on: TK-10
U-251 = tested on: U-251
UACC-62 = tested on: UACC-62
SK-OV-3 = tested on: SK-OV-3

Compound	GI50 (786-0)	GI50 (CAKI-1)	GI50 (CCRF-CEM)	GI50 (HCC 2998)	GI50 (HL-60)	GI50 (HOP-92)	GI50 (IGROV-1)	GI50 (KM12)	GI50 (M14)	GI50 (NCI-H226)	GI50 (NCI-H23)	GI50 (OVCAR-8)	GI50 (SF-295)	GI50 (SNB-19)	GI50 (SNB-75)	GI50 (SR)	GI50 (TK-10)	GI50 (U-251)	GI50 (UACC-62)	GI50 (SK-OV-3)
CC(C)(C)c1ccc(-n2c3nc(=O)n(-c4ccccc4CO)c(=O)c-3cc3ccccc32)cc1	87.1 µM (inactive)	> 100 µM (inactive)	38.1 µM (inactive)	38 µM (inactive)	23.8 µM (inactive)	36.8 µM (inactive)	71.9 µM (inactive)	37.7 µM (inactive)	42.8 µM (inactive)	28 µM (inactive)	53.1 µM (inactive)	55.3 µM (inactive)	41.1 µM (inactive)	74.8 µM (inactive)	26.2 µM (inactive)	30.5 µM (inactive)	61.5 µM (inactive)	55.6 µM (inactive)	26.8 µM (inactive)	
S=C1/C(=N/c2ccccc2)N(c2ccccc2)/C(=N\c2ccccn2)N1c1ccccc1	14.5 µM (inactive)	15.5 µM (inactive)	> 100 µM (inactive)	14.1 µM (inactive)	> 100 µM (inactive)	13 µM (inactive)	13.3 µM (inactive)	12.9 µM (inactive)		18.2 µM (inactive)	12.3 µM (inactive)	14.5 µM (inactive)	16.3 µM (inactive)	16.3 µM (inactive)	14.7 µM (inactive)	7.83 µM (inactive)	15.5 µM (inactive)	15.8 µM (inactive)	2.77 µM (inactive)	19.9 µM (inactive)
Cc1cc(O)nc(NN2C(Cl)C(=O)C2c2cccc([N+](=O)[O-])c2)n1 (stereo not given)			3.52 µM (inactive)	18.5 µM (inactive)	13.5 µM (inactive)	19.3 µM (inactive)	> 10 µM (inactive)	25.9 µM (inactive)	17.3 µM (inactive)	12.3 µM (inactive)	20.7 µM (inactive)	34.8 µM (inactive)		44 µM (inactive)	28 µM (inactive)	16.9 µM (inactive)	38.3 µM (inactive)	20 µM (inactive)	19.4 µM (inactive)	
O=c1[nH]c2cc(C(F)(F)F)ccc2nc1C(F)(F)F	37 µM (inactive)	30.3 µM (inactive)	30.8 µM (inactive)	49.7 µM (inactive)		16.6 µM (inactive)	29.3 µM (inactive)	23.7 µM (inactive)	45.1 µM (inactive)	28.6 µM (inactive)	27.2 µM (inactive)	36 µM (inactive)	30 µM (inactive)	35.6 µM (inactive)	30.2 µM (inactive)	55.8 µM (inactive)	49.7 µM (inactive)	42 µM (inactive)	43.2 µM (inactive)	30.4 µM (inactive)
CC1=C2c3c(C)ccc4ccc(C)c(c34)C2(O)C(C)C1=O (stereo not given)	51.2 µM (inactive)	52.1 µM (inactive)		> 100 µM (inactive)	28.2 µM (inactive)	44.5 µM (inactive)	49.2 µM (inactive)	41.3 µM (inactive)	62.2 µM (inactive)	> 100 µM (inactive)		19.4 µM (inactive)		44.3 µM (inactive)	30.8 µM (inactive)	> 100 µM (inactive)	> 100 µM (inactive)	> 100 µM (inactive)	35.8 µM (inactive)	52.7 µM (inactive)
CC(C)(/N=N/C(C)(C)C(=O)NCCO)C(=O)NCCO	> 100 µM (inactive)	> 100 µM (inactive)	> 100 µM (inactive)	> 100 µM (inactive)	> 100 µM (inactive)	> 100 µM (inactive)	> 100 µM (inactive)	> 100 µM (inactive)	> 100 µM (inactive)	> 100 µM (inactive)	> 100 µM (inactive)	> 100 µM (inactive)	> 100 µM (inactive)	> 100 µM (inactive)		> 100 µM (inactive)	> 100 µM (inactive)	> 100 µM (inactive)	> 100 µM (inactive)	> 100 µM (inactive)
CCOC(=O)C1S(=O)(=O)OCCOS1(=O)=O	> 100 µM (inactive)	> 100 µM (inactive)	> 100 µM (inactive)	> 100 µM (inactive)	> 100 µM (inactive)	> 100 µM (inactive)	> 100 µM (inactive)	> 100 µM (inactive)	> 100 µM (inactive)		> 100 µM (inactive)	> 100 µM (inactive)	> 100 µM (inactive)	> 100 µM (inactive)	> 100 µM (inactive)	> 100 µM (inactive)	> 100 µM (inactive)		> 100 µM (inactive)	> 100 µM (inactive)
O=S(=O)(N/N=C/c1c(Cl)cccc1Cl)c1ccccc1			66.1 µM (inactive)	> 100 µM (inactive)	29.9 µM (inactive)	> 100 µM (inactive)	> 100 µM (inactive)	> 100 µM (inactive)	> 100 µM (inactive)	> 100 µM (inactive)	> 100 µM (inactive)	> 100 µM (inactive)	> 100 µM (inactive)		31.3 µM (inactive)	> 100 µM (inactive)	> 100 µM (inactive)	50.7 µM (inactive)	97.7 µM (inactive)	> 100 µM (inactive)
O=c1oc2ccccc2cc1-c1cn2cc(Cl)ccc2n1	1 µM (active)	0.422 µM (active)		1.13 µM (inactive)	2.59 µM (inactive)	5.45 µM (inactive)	0.685 µM (active)	0.296 µM (active)	0.544 µM (active)	15.6 µM (inactive)	3.09 µM (inactive)	1.71 µM (inactive)	0.535 µM (active)	0.494 µM (active)	1.76 µM (inactive)	0.0687 µM (active)	7.53 µM (inactive)	0.653 µM (active)	0.245 µM (active)	0.773 µM (active)
Cc1ccc(S(=O)(=O)NN=C2CCCCCCCCCCC2)cc1	> 100 µM (inactive)	> 100 µM (inactive)	> 100 µM (inactive)	> 100 µM (inactive)	> 100 µM (inactive)	> 100 µM (inactive)	> 100 µM (inactive)	> 100 µM (inactive)	> 100 µM (inactive)	38.4 µM (inactive)	> 100 µM (inactive)	> 100 µM (inactive)	> 100 µM (inactive)	> 100 µM (inactive)		> 100 µM (inactive)	> 100 µM (inactive)	> 100 µM (inactive)	> 100 µM (inactive)	> 100 µM (inactive)
O=C1/C(=C/c2cccs2)N=C(c2ccccc2)N1C1Nc2cc3c(cc2S1)NC(N1C(=O)/C(=C/c2cccs2)N=C1c1ccccc1)S3 (stereo not given)	16.4 µM (inactive)	48.6 µM (inactive)		19.3 µM (inactive)	2.59 µM (inactive)	> 100 µM (inactive)	32.1 µM (inactive)	32.8 µM (inactive)	18.2 µM (inactive)	20.3 µM (inactive)	17.4 µM (inactive)	17.1 µM (inactive)	60.1 µM (inactive)		25.4 µM (inactive)	3.07 µM (inactive)	41.5 µM (inactive)	16 µM (inactive)		
O=C(CC(=O)Nc1ccc(C(=O)O)cc1)Nc1ccc(C(=O)O)cc1	> 100 µM (inactive)	> 100 µM (inactive)	> 100 µM (inactive)	> 100 µM (inactive)	> 100 µM (inactive)	> 100 µM (inactive)	> 100 µM (inactive)	> 100 µM (inactive)	> 100 µM (inactive)	> 100 µM (inactive)	> 100 µM (inactive)	> 100 µM (inactive)	> 100 µM (inactive)	> 100 µM (inactive)		> 100 µM (inactive)	> 100 µM (inactive)	> 100 µM (inactive)	37.6 µM (inactive)	> 100 µM (inactive)
Cc1ccc(S(=O)(=O)OC(COC(=O)c2ccccc2)C(OS(=O)(=O)c2ccc(C)cc2)C(OS(=O)(=O)c2ccc(C)cc2)C(COC(=O)c2ccccc2)OS(=O)(=O)c2ccc(C)cc2)cc1 (stereo not given)	> 100 µM (inactive)	> 100 µM (inactive)	> 100 µM (inactive)	> 100 µM (inactive)	> 100 µM (inactive)	> 100 µM (inactive)	> 10 µM (inactive)	> 100 µM (inactive)	> 100 µM (inactive)		> 100 µM (inactive)	> 100 µM (inactive)	> 100 µM (inactive)	> 100 µM (inactive)	29.1 µM (inactive)	> 100 µM (inactive)	> 100 µM (inactive)	> 100 µM (inactive)	> 10 µM (inactive)	> 10 µM (inactive)
COc1cccc(-c2[nH]c3cc4c(cc3c(=O)c2C(=O)O)OCO4)c1	44.8 µM (inactive)	72.8 µM (inactive)	27.4 µM (inactive)	32.8 µM (inactive)		27.5 µM (inactive)	37.8 µM (inactive)	36.7 µM (inactive)	26 µM (inactive)	43.5 µM (inactive)	31.9 µM (inactive)	23.2 µM (inactive)	23.8 µM (inactive)	43.4 µM (inactive)	84.1 µM (inactive)	8.73 µM (inactive)		37.2 µM (inactive)	33.6 µM (inactive)	
CSC1=Nc2ccccc2N(C)c2c1c(-c1ccccc1)nn2C		> 100 µM (inactive)	22.1 µM (inactive)	13.3 µM (inactive)	15.2 µM (inactive)	29.5 µM (inactive)	42.9 µM (inactive)	21.8 µM (inactive)	41.9 µM (inactive)		14.1 µM (inactive)	32.7 µM (inactive)	4.94 µM (inactive)		> 100 µM (inactive)	16.1 µM (inactive)	66.8 µM (inactive)	31.4 µM (inactive)	35.2 µM (inactive)	37.3 µM (inactive)

From ChEMBL document CHEMBL1201862, “PubChem BioAssay data set” (2004)
